For 62 compounds, melting point results are on record in a melting point compilation (Tetko et al.; mined from patent text by program, amines drawn as free bases though some values may be those of a salt).

As to `CN1CCN(c2ccc(Cl)c(C3(C)C(=O)Nc4ccc(Cl)cc43)c2)CC1` (configuration not stated), the melting point (usually the temperature, or range, at which the solid turns liquid) turned out to be 155 °C.

`COC[C@H]1CN(c2ccc3nc([C@@H](O)CCC#N)sc3c2)C(=O)O1` came in with a melting point of 74 to 75 °C. `C#CC(C)NC(=O)CCCCl` (configuration not stated): the melting point is 50 to 51 °C. With `CC1(C)C(=O)NC(=O)c2cc3nc(-c4ccncc4)[nH]c3cc21`, the melting point was 218 to 221 °C. For `COC(=O)c1ccccc1Cc1cc2cc(Cl)ccc2n1S(=O)(=O)c1ccc2c(c1)C(C)(C)CO2`, the melting point worked out at 160 °C. For `CS(=O)(=O)c1c(C(=O)O)ccc(Cl)c1F`, the melting point is 208 to 209 °C.

In the case of `N#Cc1ccc(N(Cc2ccc(OS(N)(=O)=O)c(Cl)c2)n2cnnc2)cc1-c1cc2ccccc2o1`, the melting point is 214 to 215 °C. Take `C=Cc1cc(C)cc(C)c1C1=C(O)C2(CCN(OC)CC2)NC1=O`: the melting point lay in the range of 198 to 200 °C. Compound `O=[N+]([O-])c1ccccc1SN(CCO)CCO` came in with a melting point of 82 to 86 °C. In the case of `CCCCCCOc1ccccc1C(=NCCC(C)(C)C)NC#N` it was 89 to 90 °C; in that of `Cc1ccc(N2CCN(Cc3c[nH]c4ncccc34)CC2)cc1`, 220 to 222 °C; in that of `CC(C)n1cc(-c2ccc(NS(=O)(=O)c3ccccc3)cc2)c2c(N)ncnc21`, 238 to 240 °C.

As to `COCc1ncnc(O)c1C`, the melting point is 139 to 140 °C. As for `CCCCCCCC(=O)NNC(=O)N1Cc2ccccc2Oc2ccc(C(F)(F)F)cc21`, the melting point fell in the range of 97 to 100 °C. The compound `COc1ccc(CN(CCN(C)CCNC(=O)NCCSCc2csc(NC(=N)N)n2)c2ccccn2)cc1` showed a melting point of 84 °C. `NS(=O)(=O)c1ncccc1C1=NOCC1` had a melting point of 155 to 156 °C.

`CCCN1N=C2C(=Cc3ccccc3)CS(=O)(=O)CC2C1c1ccccc1` (configuration not stated): the melting point lay in the range of 197 to 199 °C. In the case of `COc1cc(OC)cc(N2CCN(C(=S)Nc3cc(C(C)=O)c(C)nc3OC)CC2)c1` it was 167 to 169 °C; in that of `O=C(O)c1cnc2cc(C(F)(F)F)ccc2c1Cl`, 310 °C; in that of `Nc1cc(Br)cc(Br)c1N`, 78 to 80 °C. `CN1CCCc2ccc(C(=O)CCC(=O)N3CCC(c4ccc(Cl)cc4)CC3)cc2C1` came in with a melting point of 133 to 134 °C. On to `O=C1C=CC(Br)N(CCl)N1` (configuration not stated), for which the melting point turned out to be 90 °C. In the case of `COC(=O)c1nc(-c2sccc2[N+](=O)[O-])n(C)c(=O)c1OC(=O)C(C)(C)C` it was 159 to 161 °C. `C=CCOc1cc(-c2cc(=O)c3c(OCC=C)c(CC=C)c(OCC=C)cc3o2)ccc1OC` returned a melting point of 107 °C. The compound `CC(C)C[C@@H](C(=O)O)N1C(=O)[C@@H](N2C(=O)OC[C@@H]2c2ccccc2)[C@H]1CCc1ccccc1` displayed a melting point of 138 to 140 °C. In turn, `CCCCOc1cc(/C=C(\OCC)C(=O)O)ccc1OCCc1ccc(OS(=O)(=O)CCCC)c(F)c1` displayed a melting point of 99 °C. `CCCCn1c(C)c(C)cc(NC(=O)Nc2ccccc2Br)c1=O` gave a melting point of 154 to 155 °C. In the case of `CCCCCCCCCCCCCCOc1ccc(C(=O)O)cc1OCCCCCCCCCCCCCC` it was 112 to 113 °C; in that of `COc1cc(-c2nc(-n3c(C)ccc3C)sc2SCC2CCCC2)c(OC)cc1C`, 108 °C. For `C=C(C)c1c(OC)cc(Cc2cnc(N)nc2N)cc1OC`, the melting point was 228 to 229 °C. Regarding `COc1cc(COc2nn(-c3ccccc3)cc2/C=C/C(=O)N(C)OC)ccc1OCc1nc(-c2ccco2)oc1C`, the melting point fell in the range of 173 to 174 °C. For the compound `O=Cc1ncc2n1-c1ccc(Cl)cc1C(c1ccccc1F)=NC2`, the melting point lay within 182 to 183 °C.

Turning to `CCN(CC)C(=O)n1cc(Cl)c(S(=O)(=O)c2c(C)cc(C)cc2C)n1`, the melting point fell in the range of 84 to 86 °C. In the case of `Nc1nc(Nc2cccnc2)sc1C(=O)c1ccc(Cl)cc1Cl` it was 209 to 210 °C; in that of `C=CCCCCCCCCCOc1ccc(-c2ccc(OCCCCCCCCCCCBr)cc2)cc1`, 93 to 94 °C. On to `CCNC(=O)Nc1ccc(-c2sc3c(c2CN(C)CCC(=O)N2CCCC2)c(=O)n(-c2ccccc2)c(=O)n3Cc2c(F)cccc2F)cc1`, for which the melting point lay in the range of 240 to 244 °C. In the case of `COc1ccccc1Oc1c(NS(=O)(=O)c2ccc(C)cn2)nc(-c2cccc(O)c2)nc1OC` it was 211 to 216 °C; in that of `CC(C)C[C@H](NC(=O)[C@@H](N)Cc1c[nH]cn1)[C@@H](O)c1nccs1`, 118 to 126 °C; in that of `CN(C)c1ccc(C(=CC(C=C(c2ccc(N(C)C)cc2)c2ccc(N(C)C)cc2)c2ccc(N(C)C)cc2)c2ccc(N(C)C)cc2)cc1`, 215 to 220 °C. To `CN1CCN(c2cccc3c2C[C@H](NC(=O)c2ccc(C(F)(F)F)cc2C(F)(F)F)CO3)CC1` belongs 202 to 203 °C; to `CCCCCCCC(=O)C(CC(=O)OCC)C(=O)OCC` (configuration not stated), 138 to 142 °C.

In turn, `Cc1cccc(NC(=O)NC2CN(C(=O)C3CC3)c3ccccc3N(CC(=O)c3ccccc3C)C2=O)c1` (configuration not stated) yielded a melting point of 207 to 209 °C. As to `C=CCc1cc2c(cc1O)CC(=O)N2CC`, the melting point was in the range of 130 to 131 °C. `CS(=O)(=O)Nc1ccc2ncnc(N)c2c1` registered a melting point of 287 to 290 °C. For the compound `COc1ccc2c(c1)CC(CC#N)C2=O` (configuration not stated), the melting point lay within 117 to 120 °C. `COc1cccc(CC(=S)SCC(=O)O)c1` returned a melting point of 93 to 95 °C.

`CC(=O)Oc1c(Cc2ccccc2)ccc2ccccc12` came in with a melting point of 67 to 69 °C. `CCOC(=O)C1=Cc2cc(F)c(Cl)cc2N(Cc2ccccc2)C1`: the melting point lay within 211 to 212 °C. As to `CCCNC(=O)c1ccccc1`, the melting point is 87.6 to 88.9 °C. `CCN(CC)C(=O)COc1cc2ccccc2c(-c2ccccc2)n1`: the melting point is 105 °C. In turn, `CCCCc1nc(C(=O)CC)c(C#N)n1C(c1ccccc1)(c1ccccc1)c1ccccc1` returned a melting point of 140 to 143 °C. To `CC1(Cc2cc3[nH]c(=O)oc3cc2Br)OCCO1` belongs 117 to 119 °C; to `COc1ccccc1CCC1CCCCn2c1nc(-c1ccncn1)cc2=O` (racemic), 155 to 157 °C. Consider `CCN(CC)C(=O)Nc1ccc(-c2c[nH]c(=O)cn2)cc1`, for which the melting point fell in the range of 154 to 155 °C. In the case of `CCCCCCCCCCCCC1=C(OC)C(=O)c2ccccc2C1=O` it was 61 to 63 °C. `COc1ccc(C(CC(=O)O)N2C(=O)c3cc(Cl)c(Cl)cc3C2=O)cc1` (configuration not stated) returned a melting point of 182 to 185 °C. Regarding `Cc1nc(N)oc1-c1cccc2ccccc12`, the melting point was in the range of 187 to 189 °C. To `CCC(CCNC(=O)C(C#N)=Cc1cc(O)c(O)c(OC)c1)NC(=O)C(C#N)=Cc1cc(O)c(O)c(OC)c1` (configuration not stated) belongs 256 °C. For `COC(=O)c1cc(NC=O)ccn1`, the melting point lay within 185 to 186 °C.

As to `Cc1cc(CN(C(=O)Nc2ccc(C(=O)O)cc2)c2ccc3c(c2)C(C)(C)CCC3(C)C)no1`, the melting point was 188 to 193 °C.

`CC(C)(O)CCOc1ccc(/C=C/C(=O)O)c(Oc2ncc(C(F)(F)F)cc2Cl)c1` had a melting point of 192 to 194 °C. In the case of `O=C(O)C(CC1CCCCC1)NS(=O)(=O)c1ccc(Cl)cc1` (racemic), the melting point was in the range of 127 to 129 °C.
